Results on 2 compounds are retold here after patent US7271147B2, “Antibiotics, tripropeptins and process for producing the same” (Zaidan Hojin Biseibutsu Kagaku Kenkyu Kai, priority 2000, dated 2007).

In brackets after ≈: the same amount, converted by molar mass. Where two headings read alike, the source gives them in different places. Starred links: 1 amine or outer side, 2 acyl side, 3 side chain; linkers in the order of their positions; H or OH if unused. Positions of bridges follow the written chain, without caps; N, C: chain ends. Non-standard residues stand in square brackets, D forms with d. Residues, ends and D or L forms follow the SMILES beside them. ξ: configuration not given here. X6 = CC(C)CCCCCCCCC(CC(=O)[*:1])O[*:2]; X5 = CC(C)CCCCCCCC(CC(=O)[*:1])O[*:2]; ξAsp(3ξ-OH) = NC(C(=O)O)C(O)C(=O)O; X1 = O=C(C1C(O)CCN1[*:1])[*:2] Where only a bound is given, the exact number is not on record here.

What all share (assay type): cell-based
The test system of experiment [1] is Staphylococcus aureus MS9610 (multi-drug-resistant). The experiment in a line: Minimum growth inhibitory concentration, agar serial dilution. The note with it: Mueller-Hinton agar.
Experiment [2] concerns Enterococcus faecium NCTC 12204 (vancomycin-resistant). Described as above. The note with it: NCTC12204, 5% sheep blood-supplemented Mueller-Hinton agar.
For experiment [3], the system named is Staphylococcus aureus TY-03456 (methicillin-resistant). Described as above. The note with it: Staphylococcus aureus TY-03456 (methicillin-resistant); Mueller-Hinton agar; read-out: Minimum growth inhibitory concentration.
The test system of a further experiment is Shigella sonnei JS11746. The experiment is described as above. The note with it: Mueller-Hinton agar. On the procedure:
Minimum growth inhibitory concentrations (μg/ml) of tripropeptin Z against a variety of microorganisms were measured on a Mueller-Hinton agar medium (manufactured by Difco Laboratories) or on a 5% sheep blood-supplemented Mueller-Hinton agar medium (manufactured by Difco Laboratories) for Enterococcus, by a serial dilution method according to the standard method as provided by Japanese Society of Chemotherapy.
Minimum growth inhibitory concentrations (μg/ml) of tripropeptin A against a variety of microorganisms were measured on a Mueller-Hinton agar medium (manufactured by Difco Laboratories) or on a 5% sheep blood-supplemented Mueller-Hinton agar medium (manufactured by Difco Laboratories) for Enterococcus, by a serial dilution method according to the standard method as provided by Japanese Society of Chemotherapy.
Minimum growth inhibitory concentrations (μg/ml) of tripropeptin B against a variety of microorganisms were measured on a Mueller-Hinton agar medium (manufactured by Difco Laboratories) or on a 5% sheep blood-supplemented Mueller-Hinton agar medium (manufactured by Difco Laboratories) for Enterococcus, by a serial dilution method according to the standard method as provided by Japanese Society of Chemotherapy.
Minimum growth inhibitory concentrations (μg/ml) of tripropeptin C against a variety of microorganisms were measured on a Mueller-Hinton agar medium (manufactured by Difco Laboratories) or on a 5% sheep blood-supplemented Mueller-Hinton agar medium (manufactured by Difco Laboratories) for Enterococcus, by a serial dilution method according to the standard method as provided by Japanese Society of Chemotherapy.
Minimum growth inhibitory concentrations (μg/ml) of tripropeptin D against a variety of microorganisms were measured on a Mueller-Hinton agar medium (manufactured by Difco Laboratories) or on a 5% sheep blood-supplemented Mueller-Hinton agar medium (manufactured by Difco Laboratories) for Enterococcus, by a serial dilution method according to the standard method as provided by Japanese Society of Chemotherapy.

Experiment [4] deals with Staphylococcus aureus MS16497 (methicillin-resistant). The experiment is described as above. The note with it: Mueller-Hinton agar.
Experiment [5] has as its system Staphylococcus aureus TY-04282 (methicillin-resistant). The experiment is described as above. The note with it: Mueller-Hinton agar.
Experiment [6] deals with Staphylococcus aureus Smith. The description is as above. The note with it: Mueller-Hinton agar.
Experiment [7] concerns Enterococcus faecalis NCTC 12203 (vancomycin-resistant). The description is as above. The note with it: NCTC12203, 5% sheep blood-supplemented Mueller-Hinton agar.
The test system of experiment [8] is Staphylococcus aureus MS16460 (methicillin-resistant). The description is as above. The note with it: read-out: Minimum growth inhibitory concentration.
For experiment [9], the system named is Staphylococcus aureus FDA209P. The description is as above. The note with it: Mueller-Hinton agar.
The test system of experiment [10] is Enterococcus faecium NCTC 12202 (vancomycin-resistant). The experiment is described as above. The note with it: NCTC12202, 5% sheep blood-supplemented Mueller-Hinton agar.
Experiment [11] has as its system Enterococcus faecalis JCM5803. The description is as above. The note with it: 5% sheep blood-supplemented Mueller-Hinton agar.
Experiment [12] relates to Staphylococcus aureus TY-00933 (methicillin-resistant). The experiment is described as above. The note with it: Staphylococcus aureus TY-00933 (methicillin-resistant); Mueller-Hinton agar; read-out: Minimum growth inhibitory concentration.
Experiment [13] relates to Staphylococcus aureus TY-03454 (methicillin-resistant). Described as above. The note with it: Mueller-Hinton agar.
In a further experiment the test system is Salmonella typhi T-63. The description is as above. The note with it: Salmonella enterica, Mueller-Hinton agar.
The test system of the next experiment is Micrococcus luteus FDA16. The experiment is described as above. The note with it: Mueller-Hinton agar.
Experiment [14] has as its system Bacillus cereus ATCC10702. The experiment is described as above. The note with it: Bacillus cereus ATCC10702; Mueller-Hinton agar; read-out: Minimum growth inhibitory concentration.
The subject of experiment [15] is Enterococcus faecalis NCTC 12201 (vancomycin-resistant). The description is as above. The note with it: NCTC12201, 5% sheep blood-supplemented Mueller-Hinton agar.
Experiment [16] deals with Klebsiella pneumoniae PCI602. Described as above. The note with it: Mueller-Hinton agar.
Experiment [17] concerns Enterococcus faecium JCM5804. The description is as above. The note with it: 5% sheep blood-supplemented Mueller-Hinton agar.
In another experiment the test system is Bacillus anthracis. The experiment in a line: microbe, parasite or virus in culture. The note with it: read-out: Minimum growth inhibitory concentration.
Experiment [18] deals with Staphylococcus aureus MS16526 (methicillin-resistant). The experiment in a line: Minimum growth inhibitory concentration, agar serial dilution. The note with it: Mueller-Hinton agar.
The test system of experiment [19] is Corynebacterium bovis 1810. Described as above. The note with it: Mueller-Hinton agar.
The subject of another experiment is Bacillus subtilis PCI219. The description is as above. The note with it: Mueller-Hinton agar.

Take `CC(C)CCCCCCCC1CC(=O)NC(C(C)O)C(=O)N2CCCC2C(=O)N2CCCC2C(=O)NC(CCCNC(=N)N)C(=O)NC(C(O)C(=O)O)C(=O)NC(CO)C(=O)N2CCC(O)C2C(=O)NC(C(O)C(=O)O)C(=O)O1` (stereo not drawn) [Tripropeptin A] (TPPR[ξAsp(3ξ-OH)]S[X1][ξAsp(3ξ-OH)]; linker N-C via X5; configuration not given here): the MIC was 6.25 µg/mL (≈ 5.55 µM) in experiment [1]; 50 µg/mL (≈ 44.4 µM) in experiment [2]; 6.25 µg/mL (≈ 5.55 µM) in experiment [3]; greater than 100 µg/mL in the experiment on Shigella sonnei JS11746; 6.25 µg/mL (≈ 5.55 µM) in experiment [4]; 6.25 µg/mL (≈ 5.55 µM) in experiment [5]. For the same compound, the MIC in [6] is 0.78 µg/mL (≈ 0.693 µM); in [7] it was 50 µg/mL (≈ 44.4 µM); in [8] (Staphylococcus aureus MS16460 (methicillin-resistant), Mueller-Hinton agar) it was 6.25 µg/mL (≈ 5.55 µM); in experiment [9], 1.56 µg/mL (≈ 1.39 µM); in [10], 50 µg/mL (≈ 44.4 µM); in experiment [11] it was 50 µg/mL (≈ 44.4 µM). Also, the MIC was 6.25 µg/mL (≈ 5.55 µM) in experiment [12]; 6.25 µg/mL (≈ 5.55 µM) in experiment [13]; greater than 50 µg/mL in the experiment on Salmonella typhi T-63; less than 0.39 µg/mL in the experiment on Micrococcus luteus FDA16; 12.3 µg/mL (≈ 10.9 µM) in experiment [14]; 50 µg/mL (≈ 44.4 µM) in experiment [15]. Further, the MIC is greater than 50 µg/mL in experiment [16]; 50 µg/mL (≈ 44.4 µM) in experiment [17]; 25 µg/mL (≈ 22.2 µM) with Bacillus anthracis; 3.13 µg/mL (≈ 2.78 µM) in experiment [18]; 1.56 µg/mL (≈ 1.39 µM) in experiment [19]; 3.13 µg/mL (≈ 2.78 µM) against Bacillus subtilis PCI219.

On to `CC(C)CCCCCCCCC1CC(=O)NC(C(C)O)C(=O)N2CCCC2C(=O)N2CCCC2C(=O)NC(CCCNC(=N)N)C(=O)NC(C(O)C(=O)O)C(=O)NC(CO)C(=O)N2CCC(O)C2C(=O)NC(C(O)C(=O)O)C(=O)O1` (stereo not drawn) [Tripropeptin B] (TPPR[ξAsp(3ξ-OH)]S[X1][ξAsp(3ξ-OH)]; linker N-C via X6; configuration not given here), for which the MIC in experiment [1] was 3.13 µg/mL (≈ 2.74 µM); in [2], 25 µg/mL (≈ 21.9 µM); in [3], 3.13 µg/mL (≈ 2.74 µM); in the experiment with Shigella sonnei JS11746 it was greater than 100 µg/mL; in [4], 3.13 µg/mL (≈ 2.74 µM); in experiment [5], 3.13 µg/mL (≈ 2.74 µM). Further, the MIC in experiment [6] is 1.56 µg/mL (≈ 1.37 µM); in [7], 50 µg/mL (≈ 43.8 µM); in experiment [8] (Staphylococcus aureus), 6.25 µg/mL (≈ 5.48 µM); in [9], 1.56 µg/mL (≈ 1.37 µM); in experiment [10], 25 µg/mL (≈ 21.9 µM); in experiment [11], 25 µg/mL (≈ 21.9 µM). Besides, the MIC in experiment [12] was 3.13 µg/mL (≈ 2.74 µM); in experiment [13], 3.13 µg/mL (≈ 2.74 µM); against Salmonella typhi T-63, greater than 100 µg/mL; with Micrococcus luteus FDA16, 0.2 µg/mL (≈ 0.175 µM); in experiment [14], greater than 100 µg/mL; in [15], 12.5 µg/mL (≈ 11 µM). Further, the MIC is greater than 100 µg/mL in experiment [16]; 25 µg/mL (≈ 21.9 µM) in [17]; 6.25 µg/mL (≈ 5.48 µM) with Bacillus anthracis; 3.13 µg/mL (≈ 2.74 µM) in [18]; 0.78 µg/mL (≈ 0.684 µM) in [19]; 1.56 µg/mL (≈ 1.37 µM) against Bacillus subtilis PCI219.
